Experimental data taken from patent US8017725B2, “Use of heparin-binding domain of fibronectin for diagnosis and treatment of cancer” (Novartis Forschungesstiftung Zweigniederlassung Friedrich …, priority 2001, dated 2011).

Columns and labels:
[1] = tested on: T98G glioblastoma cells; assay: Adhesion assay (attachment and spreading on coated ECM substrata); type: cell-based, human
Procedure: (§1) 60-well microtiter plates (Nunc) were coated with 10 μg/ml ECM molecules giving rise to 1 μg/cm^2 (fibronectin and tenascin-C) and 4 μg/cm^2 (FNIII13) for 1 h at 37° C. ECM proteins were coated separately, starting with fibronectin, followed by tenascin-C, FNIII13 and BSA. The non-coated plastic surface was blocked with 1% heat-inactivated BSA in PBS giving rise to 10 μg/cm^2 protein. Similarly, mixed substrata of collagen I and laminin 1, respectively with tenascin-C were prepared and tenascin-C was detected by ELISA.
(§2) Efficient fibronectin and tenascin-C coating was determined by ELISA with an anti-fibronectin and anti-tenascin-C antibody (Fischer, D. et al (1995) J Biol Chem 270: 3378-3384), respectively and by PAGE analysis of lysed surface-bound ECM material combined with Coomassie Brilliant Blue staining. Before plating, cells were serum starved for 18 h in DMEM containing 1×ITS (insulin, transferrin, selene) supplement, trypsinised, trypsin was blocked with 100 μg/ml soybean trypsin inhibitor in PBS and, cells were resuspended in serum-free medium and counted. 200-500 cells per well were plated for the indicated time points, fixed by addition of glutaraldehyde (2% final concentration) for 15 minutes and stained with 0.1% crystalviolet in 20% methanol for 30 minutes. Cells were observed under a Nikon microscope (Nikon diaphot) and pictures were taken with a Nikon camera.

[2] = tested on: MDA-MB435 breast carcinoma cells; assay: Adhesion assay (attachment on coated ECM substrata); type: cell-based, human
Procedure: as §1, §2

[3] = tested on: CHO-B2 cells; assay: as above; type: cell-based, Chinese hamster; settings: CHO-B2, 20 h adhesion, ITS
Procedure: as §1, §2
(§3) The inventors tested whether expression of integrins capable of binding to fibronectin influences tenascin-C-induced compromised attachment on fibronectin. CHO-K1 cells (which express moderate levels of α5β1 (Bauer, J. S. et al (1992) J Cell Biol 116: 477-487)) were compared for levels of adhesion on fibronectin and other ECM substrates with that of cells that either express essentially no fibronectin binding integrins (CHO-B2), or overexpress α5β1 (CHO-B2α27) and αvβ1 (CHO-B2v7), respectively (Schreiner, C. et al (1991) Cancer Res 51: 1738-1740).

[4] = tested on: CHO-B2α27 cells; assay: as above; type: cell-based, Chinese hamster; settings: CHO-B2α27, 20 h adhesion, ITS
Procedure: as §1, §2, §3

[5] = tested on: CHO-K1 cells; assay: as above; type: cell-based, Chinese hamster; settings: CHO-K1, 20 h adhesion, ITS
Procedure: as §1, §2, §3

[6] = tested on: MDA-MB435 breast carcinoma cells; assay: DNA replication assay (3H-thymidine incorporation); type: cell-based, human; settings: MDA MB 435, 100 ng/ml insulin
Procedure: (§4) 96-well plates (Falcon) were coated as described above. Cells were serum starved overnight and trypsinised as described. 10^4 cells were transferred onto the coated plates in the presence of the indicated mitogens. 14 h later cells were labelled with radioactive ^3H-thymidine (0.5 μCi/well) for 4 h at 37° C., incorporated ^3H-thymidine was precipitated with 10% TCA and determined with a Beckman scintillation counter after cell lysis in 0.3N NaOH, 2% SDS. For long-term cell proliferation assays 2×10^3 MDA-MB435 cells were plated into ECM-coated 96-well plates in the presence of 10 ng/ml insulin and incubated for the indicated time points in a humidified chamber at 37° C. in a CO^2-incubator. 50% fresh medium with growth factor was added every 24 h. At different time points cells were trypsinised and counted.
(§5) Cell proliferation and DNA synthesis of MDA-MB435 breast carcinoma, T98G glioblastoma, and Chinese hamster ovary […] cells (CHO) grown on fibronectin, tenascin-C and on mixed fibronectin/tenascin-C substrata was determined. […] After 27 h, 51 h, and 75 h cells were counted. 24% and 33% more cells were counted on fibronectin/tenascin-C than on fibronectin after 51 h and 75 h of culturing, respectively. […]
(§6) DNA replication was determined by ^3H-thymidine incorporation and is described as relative increase in cpm over cells plated on fibronectin. […]

[7] = tested on: T98G glioblastoma cells; assay: DNA replication assay (3H-thymidine incorporation); type: cell-based, human; settings: 40 ng/ml PDGF-BB
Procedure: as §4, §5, §6

[8] = tested on: CHO-B2 cells; assay: DNA replication assay (3H-thymidine incorporation); type: cell-based, Chinese hamster; settings: CHO-B2, ITS
Procedure: as §4
(§7) DNA replication was determined by ^3H-thymidine incorporation and is described as relative increase in cpm over cells plated on fibronectin. Serum starved cells were triggered to enter S-phase by 40 ng/ml PDGF-BB (a), 100 ng/ml insulin (b) and ITS (c).

[9] = tested on: CHO-B2α27 cells; assay: DNA replication assay (3H-thymidine incorporation); type: cell-based, Chinese hamster; settings: CHO-B2α27, ITS
Procedure: as §4, §7

[10] = tested on: CHO-K1 cells; assay: DNA replication assay (3H-thymidine incorporation); type: cell-based, Chinese hamster; settings: CHO-K1, ITS
Procedure: as §4, §7

[11] = tested on: tumour cell lines; assay: Adhesion assay on tumour cell lines; type: cell-based
Procedure: as §1
as §2, with “camera. […]” for “camera.”

[12] = tested on: all cell lines tested; assay: DNA replication assay, all cell lines tested; type: cell-based
Procedure: as §4
In order to address whether tenascin-C alone and in ECM contexts other than fibronectin might also enhance proliferation, an investigation was carried out into DNA synthesis on a pure tenascin-C substratum where cells remained rounded and, on mixed substrata of collagen I and laminin 1 that contained tenascin-C where cells spread normally. […] To rule out that tenascin-C may shorten S-phase of the cell cycle in tumour cells, DNA synthesis of T98G cells was determined by assay every two hours starting 11 h after plating. […]

TN: Full length chicken tenascin-C TN260, recombinant, expressed in HEK-293 cells, used as coated substratum
numbers of attached cells ([1]; 1 h attachment, serum free medium): 9.3 +/− 0.9 % of cells attached on fibronectin
numbers of attached cells ([1]; 20 h adhesion, 40 ng/ml PDGF-BB): 14.6 +/− 0.4 % of cells attached on fibronectin
numbers of attached cells ([2]; MDA MB 435, 1 h attachment, serum free medium): 8.2 +/− 3.9 % of cells attached on fibronectin
numbers of attached cells ([2]; MDA MB 435, 20 h adhesion, 100 ng/ml insulin): 4.0 +/− 0.2 % of cells attached on fibronectin
numbers of attached cells [3]: 8.0 +/− 2.9 % of cells attached on fibronectin
numbers of attached cells [4]: 4.3 +/− 0.7 % of cells attached on fibronectin
numbers of attached cells [5]: 4.7 +/− 0.2 % of cells attached on fibronectin
DNA replication by 3H-thymidine incorporation [6]: 2.7 +/− 0.6 relative increase in cpm over cells plated on fibronectin
DNA replication by 3H-thymidine incorporation [7]: 3.0 +/− 0.9 relative increase in cpm over cells plated on fibronectin
DNA replication by 3H-thymidine incorporation [8]: 7.1 +/− 0.2 relative increase in cpm over cells plated on fibronectin
DNA replication by 3H-thymidine incorporation [9]: 11 +/− 3.9 relative increase in cpm over cells plated on fibronectin
DNA replication by 3H-thymidine incorporation [10]: 5.9 +/− 1.7 relative increase in cpm over cells plated on fibronectin
cells attached on tenascin-C ([11]; 1 h after plating, all cell lines tested): less than 10%
blocking of cell attachment on fibronectin ([11]; molar ratio of tenascin-C to fibronectin of 1:8): blocked cell attachment on fibronectin as efficiently as in an equimolar ratio
DNA replication indices increase on pure tenascin-C [12]: ≤ 11 fold
